The record followed here is patent publication US20080234368A9, “Therapeutic compositions and methods of use” (Trustees of Dartmouth College, priority 1998, published 2008).

Experiment [1] deals with LPS-induced NO production in rat microglia. Nature of the experiment: LPS-induced NO production in primary microglial cultures. As to conditions: for inhibition of LPS induction of NO production: LPS 5 ng/ml, 18 h. In kind it is cell-based. How it is done: For the following examples, stock solutions of CDDO (0.01 M) were made in DMSO and aliquots frozen at −20° C. Serial dilutions were made in DMSO before addition to cell culture media. Primary rat microglia and hippocampal neurons were isolated and cultured as described by Flaris et al., 1993 and Ren and Flanders, 1996.
The roles of inflammatory mediators, as well as aberrant programs for cell survival and apoptosis, in the genesis of cancer and Alzheimer's Disease are now undergoing serious investigation (McGeer and McGeer, 1995; Merrill and Benveniste, 1996; Akama et al., 1998). CDDO was tested in this example as a suppressor of de novo formation of iNOS in cultured microglia (the resident macrophages of the brain), as well as its ability to protect cultured hippocampal neurons from cell death induced by β-amyloid. […] Thus, LPS (5 ng/ml) induced iNOS in primary microglial cultures and caused a 27-fold increase in production of NO within 18 h. Concomitant treatment of these cultures with CDDO at either 10^−6 or 10 ^−7 M inhibited this induction by 73% and 52%, respectively. We have also explored the possibility that CDDO can protect cultured hippocampal neurons from cell death induced by the peptide β-amyloid, since NO has been implicated (Akama et al., 1998) in the neurotoxic actions of this peptide which is central to the pathogenesis of Alzheimer's disease (Selkoe, 1997). Hippocampal neurons were isolated and cultured from 16 day rat embryos and then treated with CDDO for 24 h before adding the β-amyloid peptide fragment, amino acids 25-35, at a final concentration of 10 μM. This dosing with β-amyloid alone caused death of more than half of the neurons in the culture within 24 h, as measured by MTT assay.

In experiment [2] the test system is COX-2. Description: Western blot for COX-2 protein in stimulated primary macrophages. The format is cell-based, mouse. The note with it: concentrations of 1 μM or less; IFN-γ 10 ng/ml, LPS 2 ng/ml, 12 h. How it is done:
(§1) FIG. 14(A) illustrates Western blots; primary mouse macrophages; IFN-γ, 10 ng/ml; LPS, 2 ng/ml were added to cultures together with triterpenoids or dexamethasone (concentrations shown as […]); cells were harvested at 12 h. FIG. 14(B) illustrates Northern blots, RAW 264.7 macrophage-like cell line. IFN-γ, 10 ng/ml; LPS, 1 ng/ml; TNF-α, 10 ng/ml, were added to cultures together with CDDO or dexamethasone. RNA prepared after 12 h; GAPDH used as a loading control. FIG. 14(C) illustrates suppression of production of NO and PGEF in primary macrophages. For NO studies, cells were treated with IFN-γ, 10 ng/ml, together with CDDO (M), dexamethasone (O), TP-82 (□), or oleanolic acid (A). After 48 h, supernatants were analyzed for NO by the Griess reaction. For PGEF studies, cells were treated with IFN-γ, 5 ng/ml, and LPS, 5 ng/ml, together with the same set of inhibitors. After 48 h, PGE was measured in supernatants by immunoassay. Control values (no inhibition) for NO and PGE2 were 4.7 nmol/[…] and 2.2 ng/ml/2×10^5 cells, respectively. FIGS. (14D) and (14E) illustrate (human colon myofibroblasts) ^18Co cells grown in MEM/10% FBS; other methods are the same as reported above for macrophages. FIG. 14(D) illustrates Northern blots showing dose-response for suppression of COX-2 mRNA after induction with IL-1β (30 pg/ml). CDDO was added together with IL-1. […]
(Immunoblotting shows a protein as a band on a membrane.)

The test system of experiment [3] is COX-2. Description: TPA-induced COX-2 in 184B5/HER mammary epithelial cells. The format is cell-based, human. As to conditions: 184B5/HER cells. From the text:
These cells were selected because of the importance of stromal cell COX-2 in colon carcinogenesis (Oshima et al., 1996). […] Although CDDO effectively blocks the induction of COX-2 by agents such as IFN-γ, LPS, TNF-α, and IL-1, CDDO is ineffective when TPA is used as the inducer of COX-2. This has been seen in 18Co cells, as well as in the human mammary epithelial cell line, 184B5/HER (Zhai et al., 1993).

For another experiment, the system named is COX-2 mRNA. Nature of the experiment: Northern blot for IL-1β-induced COX-2 mRNA in 18Co colon myofibroblasts. The format is cell-based, human. As to conditions: 18Co cells, IL-1β 30 pg/ml. How it is done: as §1
Experiment [4] deals with PGE2 production in 18Co cells. Nature of the experiment: PGE2 in culture medium of IL-1β-treated 18Co cells. In kind it is cell-based, human. As to conditions: IL-1β 30 pg/ml. How it is done:
as §1

Experiment [5] concerns IFN-γ-induced NO production in mouse macrophages. Nature of the experiment: Inhibition of IFN-γ induced NO production in mouse macrophages. In kind it is cell-based. As to conditions: read-out: IC50, inhibition of IFN-γ induced NO production. How it is done: The inhibitory activities of these compounds and dexamethasone on IFN-γ induced NO production in mouse macrophages is shown below in Table 1. The following procedure for the assay ws used. Macrophages were harvested from female mice injected intraperitoneally four days previously with 4% thioglycollate. These cells were seeded in 96-well tissue culture plates and incubated with 4 ng/mL IFN-γ in the presence or absence of inhibitory test compounds. After 48 hours NO production (measured as nitrite by the Griess reaction) was determined. Full details of the assay are given in Ding et al., 1990; Bogdan et al., 1992.

For experiment [6], the system named is COX-2. Nature of the experiment: Western blot for IL-1β-induced COX-2 protein in 18Co colon myofibroblasts. The format is cell-based, human. The note with it: 18Co cells, IL-1β 30 pg/ml. The method, then:
as §1

The next experiment deals with T1, iNOS enzymatic activity (Mus musculus, UniProt P29477).
T1 construct: added to RAW cells in which synthesis of these two enzymes has already been induced; endogenous in cells; host or cells: RAW 264.7 mouse macrophage-like cells, enzyme synthesis pre-induced
Nature of the experiment: NO production in RAW cells with enzyme synthesis already induced. In kind it is cell-based. The note with it: added after enzyme synthesis induced; data not shown. The text has this: These effects of CDDO have been seen in primary mouse macrophages, a mouse macrophage-like tumor cell line (RAW 264.7), and in non-neoplastic human colon fibroblasts. […] Neither iNOS nor COX-2 expression can be detected in these cells until they are stimulated by an inflammatory mediator such as IFN-γ, or LPS. […] The above effects on INOS and COX-2 are also reflected in the cumulative production of their respective enzyme products, NO and PGE2, as measured in primary macrophages (FIG. 14C). […] Likewise, the actions of CDDO are not blocked by the glucocorticoid antagonist, RU-486, which is known to bind to the glucocorticoid receptor (data not shown). In these regards, CDDO is identical to the other oleanolic acid derivatives previously studied (Suh et al., 1998).

The next experiment concerns iNOS. Nature of the experiment: Western blot for iNOS protein in stimulated primary macrophages. The note with it: concentrations of 1 μM or less; IFN-γ 10 ng/ml, LPS 2 ng/ml, 12 h. In kind it is cell-based, mouse. How it is done: as §1

Usually pIC50 stands for the IC50 on a negative log10 scale, so that one unit is a factor of ten.

pIC50: −log10 of the molar value.

T1 sequence (P29477 whole entry): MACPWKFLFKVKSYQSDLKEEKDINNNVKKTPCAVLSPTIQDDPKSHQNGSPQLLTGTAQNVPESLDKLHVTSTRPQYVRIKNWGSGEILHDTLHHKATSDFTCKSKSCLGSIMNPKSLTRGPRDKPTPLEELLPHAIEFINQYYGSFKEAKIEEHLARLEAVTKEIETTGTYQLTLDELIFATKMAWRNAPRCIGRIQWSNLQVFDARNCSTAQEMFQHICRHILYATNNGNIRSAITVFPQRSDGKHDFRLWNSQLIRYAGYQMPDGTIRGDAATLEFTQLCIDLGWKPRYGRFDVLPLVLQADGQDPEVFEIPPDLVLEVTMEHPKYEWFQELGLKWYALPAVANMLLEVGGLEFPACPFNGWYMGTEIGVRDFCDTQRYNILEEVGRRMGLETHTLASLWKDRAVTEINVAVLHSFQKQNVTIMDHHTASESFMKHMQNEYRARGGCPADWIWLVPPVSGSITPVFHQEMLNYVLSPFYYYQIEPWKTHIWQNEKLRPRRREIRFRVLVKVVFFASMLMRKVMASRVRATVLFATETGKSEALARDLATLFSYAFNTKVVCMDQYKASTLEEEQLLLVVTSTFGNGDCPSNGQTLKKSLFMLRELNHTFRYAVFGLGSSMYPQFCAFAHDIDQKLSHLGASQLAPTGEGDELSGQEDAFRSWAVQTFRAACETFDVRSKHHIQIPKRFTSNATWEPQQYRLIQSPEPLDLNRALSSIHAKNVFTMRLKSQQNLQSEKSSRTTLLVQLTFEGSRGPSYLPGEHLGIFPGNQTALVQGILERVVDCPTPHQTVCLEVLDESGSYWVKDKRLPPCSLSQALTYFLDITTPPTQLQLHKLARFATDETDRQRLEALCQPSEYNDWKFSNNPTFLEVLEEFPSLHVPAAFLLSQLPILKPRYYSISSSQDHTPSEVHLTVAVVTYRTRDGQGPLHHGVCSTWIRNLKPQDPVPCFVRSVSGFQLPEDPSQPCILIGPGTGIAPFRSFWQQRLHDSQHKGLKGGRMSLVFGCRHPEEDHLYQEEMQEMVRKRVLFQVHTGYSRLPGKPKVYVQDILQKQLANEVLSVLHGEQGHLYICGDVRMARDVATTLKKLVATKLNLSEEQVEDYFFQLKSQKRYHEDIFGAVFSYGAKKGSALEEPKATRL

In the case of `CC1(C)CC[C@]2(C(=O)O)CC[C@]3(C)[C@H](C(=O)C=C4[C@@]5(C)C=C(C#N)C(=O)C(C)(C)[C@@H]5CC[C@]43C)[C@@H]2C1` [Compound 6, 2-cyano-3,12-dioxoolean-1,9-dien-28-oic acid], the “inhibition of LPS induction of NO production” value in [1] (CDDO 10^−6 M) came to 73%; in experiment [1] (CDDO 10^−7 M), 52%. Also, in experiment [1] (rat microglia cells), the “activity on LPS-induced NO production compared with dexamethasone (FIG. 2)” value is “favorable to that of dexamethasone”. The “expression of COX-2 protein” value in the experiment with COX-2 [2] is recorded as “blocked expression”. For the same compound, in the experiment on COX-2 [3], the “blocking of COX-2 induction with TPA as inducer” value was “ineffective”. In addition, the “induction of COX-2 mRNA” value with COX-2 mRNA was “blocked induction”. In addition, the “PGE2 levels in the culture medium” value in [4] is on record as “lowering of PGE2 levels”. Moreover, the negative logarithm of the IC50 (pIC50) in experiment [5] was 9.00. Moreover, the “induction of COX-2 protein” value in the experiment with COX-2 [6] was “blocked induction”. Further, the “immediate effect on NO production (direct inhibition of iNOS)” value on iNOS enzymatic activity is “no immediate effect”. Moreover, in the experiment with iNOS, the “expression of iNOS protein” value is given as “blocked expression”.
